Patent US7138361B2, “Herbicidal heterocycles” (E. I. du Pont de Nemours and Company, priority 2000, dated 2006)

Key:
Assay type in all cases: in vivo
Sunflower = assay: Test C preemergence; conditions: visual evaluation after 12 to 14 days
[1] = tested on: lambsquarters (Chenopodium album); assay: Test B preemergence
Summary of the method: (§1)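 Pre: seeded pots sprayed, chemical in non-phytotoxic solvent/surfactant mix. Post: plants 2–18 cm, 1–4 leaf, same formulation. Greenhouse 13–15 d; visual % control vs untreated, 0–100 scale.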

rice (Oryza saliva) = assay: Test B preemergence
Summary of the method: as §1

[2] = tested on: crabgrass (Digitaria sanguinalis); assay: Test B preemergence
Summary of the method: as §1

[3] = tested on: giant foxtail (Setaria faberii); assay: Test B preemergence
Summary of the method: as §1

corn (Zea mays) = assay: Test B preemergence
Summary of the method: as §1

[4] = tested on: morning glory (Ipomoea hederacea); assay: Test B preemergence
Summary of the method: as §1

[5] = tested on: Surinam grass (Brachiaria decumbens); assay: Test B preemergence
Summary of the method: as §1

[6] = tested on: velvetleaf (Abutilon theophrasti); assay: Test B preemergence
Summary of the method: as §1

[7] = tested on: barnyardgrass (Echinochloa crus-galli); assay: Test B preemergence
Summary of the method: as §1

[8] = tested on: cocklebur (Xanthium strumarium); assay: Test B preemergence
Summary of the method: as §1

[9] = tested on: pigweed (Amaranthus retroflexus); assay: Test B preemergence
Summary of the method: as §1

[10] = tested on: morningglory (Ipomoea hederacea); assay: Test C preemergence; conditions: for Plant response rating, Morningglory: scale 0 to 100, 0 no effect, 100 complete control; for Plant response rating (0 to 100), Morningglory: visual evaluation after 12 to 14 days
Description: (§2) Seeds of plant species selected from bermudagrass (Cynodon dactylon), Surinam grass (Brachiaria decumbens), cocklebur (Xanthium strumarium), corn (Zea mays), crabgrass (Digitaria sanguinalis), woolly cupgrass (Eriochloa villosa), giant foxtail (Setaria faberii), goosegrass (Eleusine indica), johnsongrass (Sorghum halepense), kochia (Kochia scoparia), lambsquarters (Chenopodium album), morningglory (Ipomoea hederacea), yellow nutsedge (Cyperus esculentus), pigweed (Amaranthus retroflexus), common ragweed (Ambrosia elatior), soybean (Glycine max) and velvetleaf (Abutilon theophrasti) were planted and treated preemergence with test chemicals formulated in a non-phytotoxic solvent mixture which included a surfactant.
(§3) At the same time, plants selected from these crop and weed species and also winter barley (Hordeum vulgare), blackgrass (Alopecurus myosuroides), canary grass (Phalaris minor), chickweed (Stellaria media), downy brome (Bromus tectorum), green foxtail (Setaria viridis), Italian ryegrass (Lolium multiflorum), wheat (Triticum aestivum), wild oat (Avena fatua) and windgrass (Apera spica-venti) were treated with postemergence applications of some of the test chemicals formulated in the same manner. Plants ranged in height from 2 to 18 cm (1- to 4-leaf stage) for postemergence treatments. Plant species in the flooded paddy test consisted of rice (Oryza saliva), smallflower flatsedge (Cyperus difformis), duck salad (Heteranthera limosa) and barnyardgrass (Echinochloa crus-galli) grown to the 2-leaf stage for testing. Treated plants and controls were maintained in a greenhouse for 12 to 14 days, after which time all species were compared to controls and visually evaluated. Plant response ratings, summarized in Table C, are based on a scale of 0 to 100 where 0 is no effect and 100 is complete control. A dash (-) response means no test result.

[11] = tested on: crabgrass (Digitaria sanguinalis); assay: Test C preemergence; conditions: for Plant response rating, Crabgrass: scale 0 to 100, 0 no effect, 100 complete control; for Plant response rating (0 to 100), Crabgrass: visual evaluation after 12 to 14 days
Description: as §2, §3

[12] = tested on: giant foxtail (Setaria faberii); assay: Test C preemergence; conditions: for Plant response rating, Foxtail, Giant: scale 0 to 100, 0 no effect, 100 complete control
Description: as §2, §3

[13] = tested on: common ragweed (Ambrosia elatior); assay: Test C preemergence; conditions: preemergence; for Plant response rating (0 to 100), Ragweed, Common: visual evaluation after 12 to 14 days
Description: as §2, §3

[14] = tested on: bermudagrass (Cynodon dactylon); assay: Test C preemergence; conditions: for Plant response rating, Bermudagrass: scale 0 to 100, 0 no effect, 100 complete control; for Plant response rating (0 to 100 where 0 is no effect and 100 is complete control), Bermudagrass: visual evaluation after 12 to 14 days
Description: as §2, §3

[15] = tested on: Surinam grass (Brachiaria decumbens); assay: Test C preemergence; conditions: for Plant response rating, Surinam grass: scale 0 to 100, 0 no effect, 100 complete control; for Plant response rating (0 to 100), Surinam grass: visual evaluation after 12 to 14 days
Description: as §2, §3

[16] = tested on: velvetleaf (Abutilon theophrasti); assay: Test C preemergence; conditions: preemergence; for Plant response rating (0 to 100), Velvetleaf: visual evaluation after 12 to 14 days
Description: as §2, §3

[17] = tested on: goosegrass (Eleusine indica); assay: Test C preemergence; conditions: for Plant response rating, Goosegrass: scale 0 to 100, 0 no effect, 100 complete control; for Plant response rating (0 to 100), Goosegrass: visual evaluation after 12 to 14 days
Description: as §2, §3

[18] = tested on: cocklebur (Xanthium strumarium); assay: Test C preemergence; conditions: for Plant response rating, Cocklebur: scale 0 to 100, 0 no effect, 100 complete control; for Plant response rating (0 to 100), Cocklebur: visual evaluation after 12 to 14 days
Description: as §2, §3

[19] = Preemergence, Rate 500 g/ha, scale 0 to 100, 0 no effect, 100 complete control
[20] = preemergence, Rate 125 g/ha, scale of 0 to 100 where 0 is no effect and 100 is complete control, 13 to 15 days
[21] = Rate 125 g/ha, scale 0 to 100, 0 no effect, 100 complete control

CC1(c2ccn(C3OCN(c4cccc(C(F)(F)F)c4)C3=O)n2)CC1 (stereo not drawn) [Compound 62]
Plant response rating (0 to 100), Sunflower (Sunflower; Rate 250 g/ha): 0
Plant response rating (0 to 100), Sunflower (Sunflower; Rate 500 g/ha): 0
Plant response rating, Lambsquarters [1, 19]: 100
Plant response rating, Lambsquarters [1, 20]: 100
Plant response rating, Rice (rice (Oryza saliva); [19]): 30
Plant response rating, Rice (rice (Oryza saliva); [20]): 0
Plant response rating, Crabgrass [2, 19]: 90
Plant response rating, Crabgrass [2, 20]: 0
Plant response rating, Foxtail, Giant [3, 19]: 80
Plant response rating, Foxtail, Giant [3, 20]: 0
Plant response rating, Corn (corn (Zea mays); [19]): 0
Plant response rating, Corn (corn (Zea mays); [20]): 0
Plant response rating, Morningglory [4, 19]: 0
Plant response rating, Morningglory [4, 20]: 0
Plant response rating, Surinam grass [5, 19]: 0
Plant response rating, Surinam grass [5, 20]: 0
Plant response rating, Velvetleaf [6, 19]: 0
Plant response rating, Velvetleaf [6, 20]: 0
Plant response rating, Barnyardgrass [7, 19]: 90
Plant response rating, Barnyardgrass [7, 20]: 0
Plant response rating, Cocklebur [8, 19]: 0
Plant response rating, Cocklebur [8, 20]: 0
Plant response rating, Pigweed [9, 19]: 100
Plant response rating, Pigweed [9, 20]: 100
Plant response rating, Morningglory ([10]; Rate 62 g/ha): 0
Plant response rating (0 to 100), Morningglory ([10]; preemergence, Rate 250 g/ha): 0
Plant response rating (0 to 100), Morningglory ([10]; preemergence, Rate 500 g/ha): 0
Plant response rating, Morningglory ([10]; preemergence, Rate 125 g/ha): 0
Plant response rating, Crabgrass ([11]; Rate 62 g/ha): 0
Plant response rating (0 to 100), Crabgrass ([11]; preemergence, Rate 250 g/ha): 100
Plant response rating (0 to 100), Crabgrass ([11]; preemergence, Rate 500 g/ha): 100
Plant response rating, Crabgrass ([11]; preemergence, Rate 125 g/ha): 90
Plant response rating, Foxtail, Giant ([12]; Rate 62 g/ha): 0
Plant response rating (0 to 100), Foxtail, Giant ([12]; preemergence, Rate 500 g/ha, visual evaluation after 12 to 14 days): 100
Plant response rating, Foxtail, Giant ([12]; preemergence, Rate 125 g/ha): 0
Plant response rating (0 to 100), Ragweed, Common ([13]; Rate 250 g/ha): 0
Plant response rating (0 to 100), Ragweed, Common ([13]; Rate 500 g/ha): 0
Plant response rating, Ragweed, Common [13, 21]: 0
Plant response rating, Bermudagrass ([14]; Rate 62 g/ha): 40
Plant response rating (0 to 100 where 0 is no effect and 100 is complete control), Bermudagrass ([14]; preemergence, Rate 250 g/ha): 100
Plant response rating (0 to 100 where 0 is no effect and 100 is complete control), Bermudagrass ([14]; preemergence, Rate 500 g/ha): 100
Plant response rating, Bermudagrass ([14]; preemergence, Rate 125 g/ha): 70
Plant response rating, Surinam grass ([15]; Rate 62 g/ha): 0
Plant response rating (0 to 100), Surinam grass ([15]; preemergence, Rate 250 g/ha): 60
Plant response rating (0 to 100), Surinam grass ([15]; preemergence, Rate 500 g/ha): 80
Plant response rating, Surinam grass ([15]; preemergence, Rate 125 g/ha): 30
Plant response rating (0 to 100), Velvetleaf ([16]; Rate 250 g/ha): 0
Plant response rating (0 to 100), Velvetleaf ([16]; Rate 500 g/ha): 20
Plant response rating, Velvetleaf [16, 21]: 0
Plant response rating, Goosegrass ([17]; Rate 62 g/ha): 80
Plant response rating (0 to 100), Goosegrass ([17]; preemergence, Rate 250 g/ha): 100
Plant response rating (0 to 100), Goosegrass ([17]; preemergence, Rate 500 g/ha): 100
Plant response rating, Goosegrass ([17]; preemergence, Rate 125 g/ha): 90
Plant response rating, Cocklebur ([18]; Rate 62 g/ha): 0
Plant response rating (0 to 100), Cocklebur ([18]; preemergence, Rate 250 g/ha): 0
Plant response rating (0 to 100), Cocklebur ([18]; preemergence, Rate 500 g/ha): 0
Plant response rating, Cocklebur ([18]; preemergence, Rate 125 g/ha): 0
